Test: Cellular permeability in MDCK assay
Assay type: in vitro ADME
Details: dog, pH 7.4, MDCK II, with P-gp inhibitor GF120918 10 μM; for efflux ratio at 2.5 h, 2 μM: Papp(BA)/Papp(AB)
Protocol: Cell culture: MDCK II cells (obtained from Piet Borst at the Netherlands Cancer Institute) were seeded onto […] (PET) in 96-well BD insert systems at 2.5×10^5 cells/mL until to 4-7 days for confluent cell monolayer formation.
Experimental procedure: Test and reference compounds (nadolol, metoprolol and digoxin) were diluted with transport buffer (HBSS with 10mM Hepes, pH7.4) from stock solution to a concentration of 2 μM (<1% DMSO) and applied to the apical (A) or basolateral (B) side of the cell monolayer. Permeation of the test compounds from A to B direction or B to A direction was determined in duplicate with P-gp inhibitor (GF120918, 10 μM). Digoxin was tested at 10 μM from A to B direction or B to A direction with/without P-gp inhibitor (GF120918, 10 μM) as well, while nadolol and metoprolol were tested at 2 μM in A to B direction without P-gp inhibitor (GF120918, 10 μM) in duplicate. The plate was incubated for 2.5 hours in CO2 incubator at 37±1° C., with 5% CO2 at saturated humidity without shaking. In addition, the efflux ratio of each compound was also determined. Test and reference compounds were quantified by LC/MS/MS analysis based on the peak area ratio of analyte/IS. After transport assay, Lucifer yellow rejection assay are applied to determine the cell monolayer integrity. Buffers are removed from both apical and basolateral chambers, followed by the addition of 75 μL of 100 μM lucifer yellow in transport buffer and 250 μL transport buffer in apical and basolateral chambers, respectively. The plate is incubated for 30 minutes at 37° C. with 5% CO2 and 95% relative humidity without shaking. After 30 minutes incubation, 20 μL of lucifer yellow samples are taken from the apical sides, followed by the addition of 60 μL of Transport Buffer. And then 80 μL of lucifer yellow samples are taken from the basolateral sides. The relative fluorescence unit (RFU) of lucifer yellow is measured at 425/528 nm (excitation/emission) with a Molecular Device M2e plate reader.
Data analysis: The apparent permeability coefficient Papp (cm/s) was calculated using the equation: Papp=(dCr/dt)×Vr/(A×C0) Where dCr/dt is the cumulative concentration of compound in the receiver chamber as a function of time (μM/s); Vr is the solution volume in the receiver chamber (0.075 mL on the apical side, 0.25 mL on the basolateral side); A is the surface area for the transport, i.e. 0.0804 cm2 for the area of the monolayer; C0 is the initial concentration in the donor chamber (μM).
The efflux ratio was calculated using the equation: Efflux Ratio=Papp(BA)/Papp(AB) Percent recovery was calculated using the equation: % Recovery=100×[(Vr×Cr)+(Vd×Cd)]/(Vd×C0) Where Vd is the volume in the donor chambers (0.075 mL on the apical side, 0.25 mL on the basolateral side); Cd and Cr are the final concentrations of transport compound in donor and receiver chambers, respectively.
Percent of lucifer yellow in basolateral well is calculated using the equation:
[formula] where RFUApical and RFUBasolateral are the relative fluorescence unit values of lucifer yellow in the apical and basolateral wells, respectively; VApical and VBasolateral are the volume of apical and basolateral wells (0.075 mL and 0.25 mL), respectively. Percent lucifer yellow should be less than 2.

Structure (SMILES)	Papp at 2.5 h, 2 μM	efflux ratio at 2.5 h, 2 μM
CSc1cc(C)[nH]c(=O)c1CNC(=O)c1cc(Cl)c2c(c1C)OC(C)(C1CCC(N3CC(OC4CC4)C3)CC1)O2 (single isomer, unassigned) [Example 9]	3.8 ×10⁻⁶ cm/s	1.4
Cc1cc(Cl)c(CNC(=O)c2cc(Cl)c3c(c2C)OC(C)(C2CCC(N4CC(OC5CC5)C4)CC2)O3)c(=O)[nH]1 (single isomer, unassigned) [Example 8, 7-chloro-N-((4-chloro-6-methyl-2-oxo-1,2-dihydropyridin-3-yl)methyl)-2-(4-(3-cyclopropoxyazetidin-1-yl)cyclohexyl)-2,4-dimethylbenzo[d][1,3]dioxole-5-carboxamide]	6.1 ×10⁻⁶ cm/s	0.9
CSc1nc(C)[nH]c(=O)c1CNC(=O)c1cc(Cl)c2c(c1C)OC(C)(C1CCC(N3CC(OC(F)F)C3)CC1)O2 (single isomer, unassigned) [Example 10]	6.5 ×10⁻⁶ cm/s	0.69
CSc1cc(C)[nH]c(=O)c1CNC(=O)c1cc(Cl)c2c(c1C)OC(C)(C1CCC(N3CC(OC(F)F)C3)CC1)O2 (single isomer, unassigned) [Example 1, 7-chloro-2-(4-(3-(difluoromethoxy)azetidin-1-yl)cyclohexyl)-2,4-dimethyl-N-((6-methyl-4-(methylthio)-2-oxo-1,2-dihydropyridin-3-yl)methyl)benzo[d][1,3]dioxole-5-carboxamide]	5.6 ×10⁻⁶ cm/s	0.79

Further lines, results first:

Papp at 2.5 h, 2 μM	efflux ratio at 2.5 h, 2 μM	Structure (SMILES)
6.3 ×10⁻⁶ cm/s	1.2	CSc1cc(C)[nH]c(=O)c1CNC(=O)c1cc(Cl)c2c(c1C)OC(C)(C1CCC(N3CC(F)C3)CC1)O2 (single isomer, unassigned) [Example 12]
8.9 ×10⁻⁶ cm/s	0.64	Cc1cc(Cl)c(CNC(=O)c2cc(Cl)c3c(c2C)OC(C)(C2CCC(N4CC(OC(F)F)C4)CC2)O3)c(=O)[nH]1 (single isomer, unassigned) [Example 13]
2.5 ×10⁻⁶ cm/s	1.8	COC1CN(C2CCC(C3(C)Oc4c(Cl)cc(C(=O)NCc5c(SC)cc(C)[nH]c5=O)c(C)c4O3)CC2)C1 (single isomer, unassigned) [Example 17, 7-chloro-2-(4-(3-methoxyazetidin-1-yl)cyclohexyl)-2,4-dimethyl-N-((6-methyl-4-(methylthio)-2-oxo-1,2-dihydropyridin-3-yl)methyl)benzo[d][1,3]dioxole-5-carboxamide]

From patent US11274095B2, “Modulators of methyl modifying enzymes, compositions and uses thereof” (Constellation Pharmaceuticals, Inc., priority 2018, dated 2022)
